test: gradient 5% acetonitrile 3 min, to 50% in 2 min, to 85% in 15 min, held 3 min, 100 µL/min; settings: column: Zorbax Extend-C18 2.1 x 50 mm; eluents: water / acetonitrile, 0.1% formic acid
Method in brief: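 Retention times come from adduct peaks that were picked computationally and then checked by hand. The standards, pure and pooled in mixtures of ~100 molecules, were run on a Zorbax Extend-C18 column (2.1 × 50 mm, 1.8 μm) at 100 μL/min with water and acetonitrile, each with 0.1% formic acid. Detection was by quadrupole time-of-flight mass spectrometry in positive and negative ionization mode, with a dead volume of 40 μL and a dwell volume of 900 μL.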

First: Cc1ccc(Cn2c(=O)c(N3CCCC(C(=O)NCCc4c(C)noc4C)C3)nc3ccccc32)cc1 (stereo not drawn)
Second: CCOc1nc2ccccc2nc1N1CCCC(C(=O)Nc2cccc(Cl)c2C)C1 (stereo not drawn)
The RP-LC retention time of the first is lower: 1080 s for the first, 1310 s for the second.

Compared with `O=C(NCCC(c1ccccc1)c1ccccc1)c1cnc2sccn2c1=O`, `COCCNC(=O)c1ccc(OC2CCN(CC(c3ccccc3)c3ccccc3)CC2)c(OC)c1` is lower in RP-LC retention time: 847 s for the first, 680 s for the second.

Going from `CC1(C)C(=O)N(CC(=O)N2CCN(c3ccc(F)cc3)CC2)c2ccccc21` to `COC(=O)C1=CN(c2ccc(F)cc2)c2ccccc2S1(=O)=O`, the RP-LC retention time falls from 911 s to 790 s.

First: CC(=O)N1CCc2cc(N3CC(C(=O)NC(C)C)CC3=O)ccc21 (stereo not drawn)
Second: CC(C)CCNC(=O)c1cccc2c1CCN2C(=O)C1CC1
The RP-LC retention time of the first is lower: 613 s for the first, 831 s for the second.

First: O=C(Cc1cccs1)Nc1nnc(Cc2ccc(F)cc2)o1
Second: CN(CCc1noc(-c2ccc(F)cc2)n1)C(=O)NCCc1ccccc1
The RP-LC retention time of the first is lower: 707 s for the first, 909 s for the second.

First: Cc1cc(-c2nnc(-c3ccco3)o2)c(C)n1CC(=O)Nc1cccc(F)c1
Second: Cc1cccc(CN2CCc3nc(C)n(CC(=O)Nc4ccc5c(c4)OCO5)c(=O)c3C2)c1
The RP-LC retention time of the first is higher: 881 s for the first, 575 s for the second.

First: CCCOc1c(C(=O)OC)sc2ccc(NC(=O)c3cc(-c4cccs4)[nH]n3)cc12
Second: Cc1ccc(NC(=O)c2cc3c(=O)n(C)c4ccccc4n3n2)cc1F
The RP-LC retention time of the first is higher: 1110 s for the first, 975 s for the second.

First: CCN(CC)CCNC(=O)c1cn(C)nc1S(=O)(=O)N1CCN(c2ccc(Cl)cc2)CC1
Second: CCn1cc(-c2ccc(Cl)cc2)cc1C(=O)NCCCN(C)C
The RP-LC retention time of the first is higher: 707 s for the first, 694 s for the second.

Going from `Cc1ccc(Cl)cc1NC(=O)C1CCN(S(=O)(=O)c2cc(C(=O)N(C)C)cs2)CC1` to `CN(C)C(=O)c1cc2c(s1)CCC(C(=O)NC1CCN(Cc3ccccc3)CC1)C2` (stereo not drawn), the RP-LC retention time falls from 846 s to 598 s.

Compared with `Cn1cnc2ccc(-c3noc(-c4ccc(F)cc4)n3)cc21`, `Cc1nc2cc(-c3noc(-c4cncc(Br)c4)n3)ccc2o1` is higher in RP-LC retention time: 739 s for the first, 1060 s for the second.

First: COc1ccc(NC(=O)CSc2nccc(N3CCN(c4cc(C)ccc4C)CC3)n2)c(OC)c1
Second: Cc1cc(N2CCN(c3ccccn3)CC2)n2nc(C)c(-c3ccc(F)cc3)c2n1
The RP-LC retention time of the first is higher: 980 s for the first, 664 s for the second.

First: Cc1ccccc1CNC(=O)Cn1c(=O)c2nncn2c2ncccc21
Second: Cc1noc(-c2cc(=O)n(CC(=O)NCc3ccccc3Cl)c3ccccc23)n1
The RP-LC retention time of the first is lower: 662 s for the first, 866 s for the second.

First: O=C(NCCn1c(-c2ccncc2)nc2cccnc21)Nc1ccccc1Cl
Second: CCOc1ccc(NC(=O)NCCn2c(C(F)(F)F)nc3cccnc32)cc1
The RP-LC retention time of the first is lower: 624 s for the first, 756 s for the second.

Going from `CCC(C)NS(=O)(=O)c1cc(-c2c(C)noc2NC(C)=O)ccc1OC` (stereo not drawn) to `Cc1noc(C)c1S(=O)(=O)N1CCC(n2nc(-c3ccccc3)nc2C)C1` (stereo not drawn), the RP-LC retention time rises from 720 s to 806 s.

Going from `COC(=O)c1c(C)[nH]c(C(=O)N2CCC(CC(=O)NCc3ccccc3Cl)CC2)c1C` to `Cc1cccc(Nc2nc(C(=O)N3CCC(C(N)=O)CC3)cs2)n1`, the RP-LC retention time falls from 775 s to 572 s.

Going from `Clc1cccc(-c2noc(Cc3nc(-c4ccccc4)cs3)n2)c1` to `CCOc1ccccc1-n1ccn(Cc2nc(-c3cccc(OC)c3)no2)c(=O)c1=O`, the RP-LC retention time falls from 1280 s to 856 s.

First: C=CCNC(=O)c1cn(-c2ccc(-c3nc(C4CC4)no3)cn2)cn1
Second: O=C(NCC1CC1)c1cn(C2CN(C(=O)CCc3c[nH]c4ccccc34)C2)nn1
The RP-LC retention time of the first is higher: 788 s for the first, 712 s for the second.

First: Cn1c(=O)c2nc(SCCC(=O)Nc3ccc(Br)cc3)n(C)c2n(C)c1=O
Second: Cc1ccc(-c2cn3c(CC(=O)Nc4ccc(Cl)cc4)csc3n2)cc1C
The RP-LC retention time of the first is lower: 757 s for the first, 940 s for the second.

Compared with `O=C(c1ccco1)N1CCN(c2ncnc3c2cnn3Cc2ccccc2)CC1`, `O=C(c1cc2c(=O)n(Cc3ccccc3)ccc2s1)N1CCOCC1` is lower in RP-LC retention time: 741 s for the first, 716 s for the second.

Compared with `Cc1cc(C)cc(NC(=O)c2cc3sccc3n2C)c1`, `Cc1cc(C)cc(C(=O)NC2CCN(c3ccccc3)C2=O)c1` (stereo not drawn) is lower in RP-LC retention time: 1090 s for the first, 862 s for the second.

First: Cc1cccc(-n2c(=O)c3sccc3n(Cc3nc(-c4ccc(C(C)(C)C)cc4)no3)c2=O)c1
Second: COCCCn1c(=O)c2ccccc2n(Cc2nc(-c3ccc(OC(C)C)cc3)no2)c1=O
The RP-LC retention time of the first is higher: 1260 s for the first, 1120 s for the second.

Going from `CCc1nncn1C1CCN(S(=O)(=O)c2ccccc2C)CC1` to `O=S(=O)(c1ccccc1F)N1CC(n2cnnc2-c2ccccc2)C1`, the RP-LC retention time falls from 686 s to 671 s.

Compared with `OC(COc1ccc(Cl)cc1Cl)CN1CCCC1` (stereo not drawn), `O=C(Nc1cccc(Cl)c1)C(=O)c1cn(CC(=O)N2CCCC2)c2ccccc12` is higher in RP-LC retention time: 570 s for the first, 1020 s for the second.

First: CCn1ccc2cc(S(=O)(=O)N3CCCN(C(=O)Nc4ccccc4)CC3)ccc21
Second: CC(=O)Nc1ccc(S(=O)(=O)N2CCC(CC(=O)N3CCN(c4ccccn4)CC3)CC2)cc1
The RP-LC retention time of the first is higher: 868 s for the first, 581 s for the second.

Going from `COc1ccc(CCN)cc1` to `COc1ccc(-c2noc(NCC3CCCO3)n2)cc1` (stereo not drawn), the RP-LC retention time rises from 574 s to 765 s.

Compared with `O=C(Nc1cc(-c2ccccn2)no1)c1ccc(Br)cc1`, `CCCN1C(=O)COc2ccc(-c3csc(NC(=O)c4ccccc4Cl)n3)cc21` is higher in RP-LC retention time: 868 s for the first, 1030 s for the second.

Going from `COc1ccc2[nH]cc(CCNC(=O)CN3C(=O)CCn4nc(-c5cn(C)c6ccccc56)cc43)c2c1` to `COc1ccc(-c2cc(C(=O)N3CCN(c4c(C)n(C)c(=O)n(C)c4=O)CC3)c3ccccc3n2)cc1`, the RP-LC retention time rises from 797 s to 806 s.

Compared with `Cc1cc(N2CCN(C(=O)C3CCCCC3)CC2)nc(N2CCCC2)n1`, `Cc1cc(C)c2c(N3CCOCC3)nc(C(=O)N3CCN(C4CCCCC4)CC3)nc2n1` is lower in RP-LC retention time: 672 s for the first, 574 s for the second.

First: COc1cccc(C2CC(c3ccc(F)cc3)=NC3(CCN(C(C)=O)CC3)N2)c1O (stereo not drawn)
Second: COc1ccccc1-c1nnc(-c2ccc(Cl)c(S(=O)(=O)N3CCCCCC3)c2)o1
The RP-LC retention time of the first is lower: 656 s for the first, 1150 s for the second.

Compared with `Cc1ccc(N2CC(c3nc(-c4ccc5c(c4)oc(=O)n5C(C)C)no3)CC2=O)cc1` (stereo not drawn), `Cc1cc2nn(CC(=O)Nc3cc(F)cc(F)c3)c(=O)n2c(Nc2ccc(F)c(C)c2)n1` is higher in RP-LC retention time: 990 s for the first, 1070 s for the second.

First: Cc1ccc2[nH]c(=O)c(CCC(=O)N3CCN(C4CCCCC4)CC3)cc2c1
Second: Cc1ccc(C)c(CN2CCn3c(nn(CC4CC4)c3=O)C2)c1
The RP-LC retention time of the first is lower: 619 s for the first, 879 s for the second.

Going from `CCCNC(=O)CSc1cc(NCc2ccc(Cl)cc2)ncn1` to `CCOc1ccc(CNC(=O)c2cnc(N3CCSCC3)nc2N)cc1`, the RP-LC retention time falls from 778 s to 716 s.

Going from `O=C(Cn1ccn2nc(-c3ccccc3)c(CO)c2c1=O)NCc1ccc2c(c1)OCO2` to `CN(C)c1cccc(C(=O)N2CCCN(c3cc(-c4ccc5c(c4)OCO5)[nH]n3)CC2)c1`, the RP-LC retention time falls from 738 s to 680 s.

Going from `Cc1ccccc1NC(=O)Cn1nc2n(c1=O)CCCC2` to `Cc1cc(C)c(NC(=O)Cn2nc3c(Oc4ccccc4C)nccn3c2=O)c(C)c1`, the RP-LC retention time rises from 630 s to 894 s.

First: Cc1cc(C(=O)Nc2ccc3c(c2)OCCO3)no1
Second: O=[N+]([O-])c1c(NCCO)cc(Nc2ccc3c(c2)OCCO3)c2nonc12
The RP-LC retention time of the first is higher: 681 s for the first, 660 s for the second.

Compared with `O=C(NCc1ccccc1)C(=O)c1c[nH]c2ccccc12`, `CCc1ccc(N2C(=O)Nc3ccccc3C2(O)C(=O)NCCN(CC)CC)cc1` (stereo not drawn) is lower in RP-LC retention time: 605 s for the first, 575 s for the second.

First: O=c1n(Cc2ccc(Cl)cc2)nc2ccc(S(=O)(=O)N3CCOCC3)cn12
Second: COc1ccc(Cn2nc3c(S(=O)(=O)N4CCCCCC4)cccn3c2=O)cc1
The RP-LC retention time of the first is lower: 676 s for the first, 909 s for the second.

Going from `CCN1C(=O)C2CC3(CCN(C(=O)C4CCCCC4)CC3)CN2C1=O` (stereo not drawn) to `CN1CCC(CCNC(=O)C2CCc3sc(C(=O)N4CCCC4)cc3C2)CC1` (stereo not drawn), the RP-LC retention time falls from 738 s to 579 s.

Going from `O=C(NC1CC1)c1ccc(OCC2CCCN(C(=O)c3cc(F)ccc3F)C2)cc1` (stereo not drawn) to `O=C(Nc1ccccc1F)N1CCC(N2CCN(Cc3ccc(F)cc3)C2=O)CC1`, the RP-LC retention time falls from 820 s to 811 s.

Going from `CCOC(=O)N1CCN(S(=O)(=O)c2ccc(C(=O)Nc3cccc(C)n3)cc2)CC1` to `O=C(c1nnc(-c2ccc(S(=O)(=O)N3CCOCC3)cc2)o1)N1CCC(Cc2ccccc2)CC1`, the RP-LC retention time rises from 721 s to 1080 s.

First: O=C(C1COc2ccccc2O1)N1CCN(c2cc(-c3ccc(Cl)cc3)[nH]n2)CC1 (stereo not drawn)
Second: N#Cc1cccc(S(=O)(=O)N2CCC(c3nnc(C(=O)Nc4ccc5c(c4)OCO5)s3)CC2)c1
The RP-LC retention time of the first is lower: 926 s for the first, 951 s for the second.

Going from `CC(C)CCNC(=O)CCCn1c2ccccc2c2cnn(C)c(=O)c21` to `CN1C(=O)C2(c3ccccc31)C(C(=O)Nc1ccc(Br)cc1F)CC1CCCN12` (stereo not drawn), the RP-LC retention time falls from 865 s to 674 s.

Compared with `COc1ccc(CN2C[C@@H]3C(=O)N(CCc4ccccc4)C(=O)[C@@H]3C2)c(OC)c1`, `CCCS(=O)(=O)N1CCC2(CC1)CC(N1CCN(c3ccccc3)CC1)CCO2` (stereo not drawn) is lower in RP-LC retention time: 728 s for the first, 538 s for the second.

Compared with `O=C(Nc1ccc(F)cc1F)C1CCCN(c2ncnc3c2nc2n3CCCCC2)C1` (stereo not drawn), `O=CN1CC/C(=C/c2ccc3c(c2)OCO3)C1=O` is lower in RP-LC retention time: 824 s for the first, 784 s for the second.

— the METLIN SMRT retention time set (Domingo-Almenara et al. 2019)
